Laboratory results reported in US10040781B2, “Tank-binding kinase inhibitor compounds” (Gilead Sciences, Inc., priority 2014, dated 2018).
Read-outs that look alike come from different tables or passages of the source.

Legend:
IKKε = IKKε (Homo sapiens (Human), UniProt Q14164); assay: IKKε TR-FRET enzymatic assay; assay type: biochemical
TBK1 = TBK1 (Homo sapiens (Human), UniProt Q9UHD2); assay: TBK1 TR-FRET enzymatic assay;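 further: phosphorylation of a biotinylated Ser/Thr peptide by purified full-length recombinant TBK1, read by TR-FRET after 240 min at 25 °C, IC50 is the geometric mean of at least four runs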
Sequence of TBK1 (Q9UHD2 whole entry): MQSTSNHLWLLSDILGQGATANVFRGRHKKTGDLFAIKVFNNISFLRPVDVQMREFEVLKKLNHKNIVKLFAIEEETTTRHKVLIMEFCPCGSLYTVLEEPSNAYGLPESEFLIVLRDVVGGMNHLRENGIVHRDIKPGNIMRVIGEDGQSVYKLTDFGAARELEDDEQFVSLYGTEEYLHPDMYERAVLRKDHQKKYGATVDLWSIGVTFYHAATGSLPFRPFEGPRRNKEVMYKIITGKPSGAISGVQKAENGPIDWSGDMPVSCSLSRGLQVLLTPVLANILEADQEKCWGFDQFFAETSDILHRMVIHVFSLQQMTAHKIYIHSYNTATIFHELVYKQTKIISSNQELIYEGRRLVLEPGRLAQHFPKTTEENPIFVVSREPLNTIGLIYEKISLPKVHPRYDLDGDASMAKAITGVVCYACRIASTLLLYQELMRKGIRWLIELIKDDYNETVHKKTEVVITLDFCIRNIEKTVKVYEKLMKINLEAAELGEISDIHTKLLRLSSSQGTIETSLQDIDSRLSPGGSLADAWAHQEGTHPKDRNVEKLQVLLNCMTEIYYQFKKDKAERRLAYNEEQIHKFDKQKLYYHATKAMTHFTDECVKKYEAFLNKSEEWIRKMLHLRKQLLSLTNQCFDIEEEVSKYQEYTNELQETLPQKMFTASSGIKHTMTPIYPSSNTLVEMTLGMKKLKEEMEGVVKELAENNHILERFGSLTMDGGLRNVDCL

Sequence of IKKε (Q14164 whole entry): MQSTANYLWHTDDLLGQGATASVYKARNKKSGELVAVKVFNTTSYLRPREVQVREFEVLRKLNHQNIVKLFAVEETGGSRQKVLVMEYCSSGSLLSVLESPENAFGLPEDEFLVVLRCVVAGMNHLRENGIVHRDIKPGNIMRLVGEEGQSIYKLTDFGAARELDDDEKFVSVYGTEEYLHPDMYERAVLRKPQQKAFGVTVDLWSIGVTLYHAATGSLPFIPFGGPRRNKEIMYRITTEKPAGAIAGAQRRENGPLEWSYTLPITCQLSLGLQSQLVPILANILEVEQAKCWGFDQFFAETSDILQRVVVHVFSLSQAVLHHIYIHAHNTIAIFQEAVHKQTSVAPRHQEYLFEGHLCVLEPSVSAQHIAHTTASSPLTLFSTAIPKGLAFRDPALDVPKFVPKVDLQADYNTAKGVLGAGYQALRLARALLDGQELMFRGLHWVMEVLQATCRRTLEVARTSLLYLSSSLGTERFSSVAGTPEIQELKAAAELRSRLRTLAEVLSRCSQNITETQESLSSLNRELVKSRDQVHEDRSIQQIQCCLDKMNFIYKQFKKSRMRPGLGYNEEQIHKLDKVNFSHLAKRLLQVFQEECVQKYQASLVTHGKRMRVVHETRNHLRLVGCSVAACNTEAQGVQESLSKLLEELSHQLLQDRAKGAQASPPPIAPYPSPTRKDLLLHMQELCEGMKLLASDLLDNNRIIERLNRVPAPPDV

| Structure (SMILES) | IC50 (IKKε; read-out: IKKe IC50) | IC50 (IKKε; IKKe IC50) | IC50 (TBK1; TBK1 IC50) | IC50 (TBK1) |
| --- | --- | --- | --- | --- |
| N#Cc1cc(-c2ncnc(Nc3ccc(N4CCN(C5COC5)CC4)cc3)n2)ccc1O[C@@H]1CCN(C(=O)CO)C[C@@H]1F (racemic) [Example 218, 2-((cis-3-fluoro-1-(2-hydroxyacetyl)piperidin-4-yl)oxy)-5-(4-((4-(4-(oxetan-3-yl)piperazin-1-yl)phenyl)amino)-1,3,5-triazin-2-yl)benzonitrile] | 3 nM | – | – | – |
| N#Cc1cc(-c2ncnc(Nc3ccc(N4CCN(C5COC5)CC4)cc3)n2)ccc1OC1CC[S+]([O-])CC1 (single isomer, unassigned) [Example 25, 5-(4-((4-(4-(oxetan-3-yl)piperazin-1-yl)phenyl)amino)-1,3,5-triazin-2-yl)-2-((1-oxidotetrahydro-2H-thiopyran-4-yl)oxy)benzonitrile] | – | 73 nM | 21 nM | – |
| N#Cc1cc(-c2ncnc(Nc3ccc(N4CCN(C5COC5)CC4)cc3)n2)ccc1OC1CC[S+]([O-])CC1 (single isomer, unassigned) [Example 26, 5-(4-((4-(4-(oxetan-3-yl)piperazin-1-yl)phenyl)amino)-1,3,5-triazin-2-yl)-2-((1-oxidotetrahydro-2H-thiopyran-4-yl)oxy)benzonitrile] | – | 23 nM | 6 nM | – |
| COC(=O)N1CC[C@@H](Oc2ccc(-c3ncnc(Nc4ccc(N5CCN(C6COC6)CC5)cc4)n3)cc2C#N)C1 [Example 2, (R)-methyl 3-(2-cyano-4-(4-((4-(4-(oxetan-3-yl)piperazin-1-yl)phenyl)amino)-1,3,5-triazin-2-yl)phenoxy)pyrrolidine-1-carboxylate] | 148 nM | – | – | 37 nM |
| CNC(=O)c1ccc(Nc2ncnc(-c3ccc(OC4CCOCC4)c(C#N)c3)n2)cc1 [Example 14, 4-((4-(3-cyano-4-((tetrahydro-2H-pyran-4-yl)oxy)phenyl)-1,3,5-triazin-2-yl)amino)-N-methylbenzamide] | 21 nM | – | – | 4 nM |
| N#Cc1cc(-c2ncnc(Nc3ccc(N4CCN(C5COC5)CC4)cc3)n2)ccc1O[C@@H]1CCOC1 [Example 29, (R)-5-(4-((4-(4-(oxetan-3-yl)piperazin-1-yl)phenyl)amino)-1,3,5-triazin-2-yl)-2-((tetrahydrofuran-3-yl)oxy)benzonitrile] | 32 nM | – | – | 5 nM |
| N#Cc1cc(-c2ncnc(Nc3ccc(N4CCOCC4)cc3)n2)ccc1NC(=O)[C@@H]1CCCN1 [Example 37, (S)—N-(2-cyano-4-(4-((4-morpholinophenyl)amino)-1,3,5-triazin-2-yl)phenyl)pyrrolidine-2-carboxamide] | 305 nM | – | – | 203 nM |
| COc1cc(Nc2ncnc(-c3ccc(OC4CCOCC4)c(C#N)c3)n2)cc(F)c1N1CCN(C2COC2)CC1 [Example 61, 5-(4-((3-fluoro-5-methoxy-4-(4-(oxetan-3-yl)piperazin-1-yl)phenyl)amino)-1,3,5-triazin-2-yl)-2-((tetrahydro-2H-pyran-4-yl)oxy)benzonitrile] | 7 nM | – | – | 2 nM |
| N#Cc1cc(-c2ncnc(Nc3ccc(N4CCN(C(=O)CO)CC4)cc3)n2)ccc1OC1CCOCC1 [Example 64, 5-(4-((4-(4-(2-hydroxyacetyl)piperazin-1-yl)phenyl)amino)-1,3,5-triazin-2-yl)-2-((tetrahydro-2H-pyran-4-yl)oxy)benzonitrile] | 5 nM | – | – | 1 nM |
| N#Cc1cc(-c2ncnc(Nc3ccc(N4CCO[C@@H](CO)C4)cc3)n2)ccc1OC1CCOCC1 [Example 107, (R)-5-(4-((4-(2-(hydroxymethyl)morpholino)phenyl)amino)-1,3,5-triazin-2-yl)-2-((tetrahydro-2H-pyran-4-yl)oxy)benzonitrile] | 3 nM | – | – | – |
| N#CCC(=O)N1CC[C@H](Oc2ccc(-c3ncnc(Nc4ccc(N5CCN(C6COC6)CC5)cc4)n3)cc2C#N)C(F)(F)C1 [Example 160, (S)-2-((1-(2-cyanoacetyl)-3,3-difluoropiperidin-4-yl)oxy)-5-(4-((4-(4-(oxetan-3-yl)piperazin-1-yl)phenyl)amino)-1,3,5-triazin-2-yl)benzonitrile] | 2 nM | – | – | 3 nM |
| N#Cc1cc(-c2ncnc(Nc3ccc(N4CCN(C5COC5)CC4)cc3)n2)ccc1O[C@H]1CCN(C(=O)c2cnn[nH]2)CC1(F)F [Example 165, (S)-2-((3,3-difluoro-1-(1H-1,2,3-triazole-5-carbonyl)piperidin-4-yl)oxy)-5-(4-((4-(4-(oxetan-3-yl)piperazin-1-yl)phenyl)amino)-1,3,5-triazin-2-yl)benzonitrile] | 1 nM | – | – | 2 nM |
| N#Cc1cc(-c2ncnc(Nc3ccc(N4CCN(C5COC5)CC4)cc3)n2)ccc1OC1CCN(C(=O)c2ncc[nH]2)CC1 [Example 189, 2-((1-(1H-imidazole-2-carbonyl)piperidin-4-yl)oxy)-5-(4-((4-(4-(oxetan-3-yl)piperazin-1-yl)phenyl)amino)-1,3,5-triazin-2-yl)benzonitrile] | 19 nM | – | – | 5 nM |
| CN1CC2(CCN(c3ccc(-c4ncnc(Nc5ccc(N6CCN(C7COC7)CC6)cc5)n4)cc3C#N)CC2)C1 [Example 209, 2-(2-methyl-2,7-diazaspiro[3.5]nonan-7-yl)-5-(4-((4-(4-(oxetan-3-yl)piperazin-1-yl)phenyl)amino)-1,3,5-triazin-2-yl)benzonitrile] | 213 nM | – | – | 49 nM |
| N#Cc1cc(-c2ncnc(Nc3ccc(N4CCN(C5COC5)CC4)cc3)n2)ccc1O[C@H]1CCOC1 [Example 216, (S)-5-(4-((4-(4-(oxetan-3-yl)piperazin-1-yl)phenyl)amino)-1,3,5-triazin-2-yl)-2-((tetrahydrofuran-3-yl)oxy)benzonitrile] | 42 nM | – | – | 13 nM |
| N#Cc1cc(-c2ncnc(Nc3ccc(N4CCN(C5COC5)CC4)cc3)n2)ccc1O[C@@H]1CCN(C(=O)CO)C[C@@H]1F [Example 224, 2-(((3S,4R)-3-fluoro-1-(2-hydroxyacetyl)piperidin-4-yl)oxy)-5-(4-((4-(4-(oxetan-3-yl)piperazin-1-yl)phenyl)amino)-1,3,5-triazin-2-yl)benzonitrile] | 23 nM | – | – | – |
| N#Cc1cc(-c2ncnc(Nc3ccc(N4CCN(C5COC5)CC4)cc3)n2)ccc1O[C@@H]1CCN(C(=O)CO)C[C@H]1F [Example 235, 2-(((3R,4R)-3-fluoro-1-(2-hydroxyacetyl)piperidin-4-yl)oxy)-5-(4-((4-(4-(oxetan-3-yl)piperazin-1-yl)phenyl)amino)-1,3,5-triazin-2-yl)benzonitrile] | 5 nM | – | – | – |
| C[C@H]1CN(C2COC2)CCN1c1ccc(Nc2ncnc(-c3ccc(O[C@H]4CCN(C(=O)c5cnn[nH]5)CC4(F)F)c(C#N)c3)n2)cc1 [Example 258, 2-(((S)-3,3-difluoro-1-(1H-1,2,3-triazole-5-carbonyl)piperidin-4-yl)oxy)-5-(4-((4-((S)-2-methyl-4-(oxetan-3-yl)piperazin-1-yl)phenyl)amino)-1,3,5-triazin-2-yl)benzonitrile] | 1 nM | – | – | 3 nM |
| N#Cc1cc(-c2ncnc(Nc3ccc(C4CCN(C5COC5)CC4)cc3)n2)ccc1OC1CCS(=O)(=O)CC1 [Example 270, 2-((1,1-dioxidotetrahydro-2H-thiopyran-4-yl)oxy)-5-(4-((4-(1-(oxetan-3-yl)piperidin-4-yl)phenyl)amino)-1,3,5-triazin-2-yl)benzonitrile] | 43 nM | – | – | – |
